Measurements published in patent US20220251081A1, “HETEROBICYCLIC INHIBITORS OF MAT2A AND METHODS OF USE FOR TREATING CANCER” (priority 2019, published 2022).

Key:
[1] = system: SAM in HCT116 human colon carcinoma cell line with deleted MTAP gene; assay: Cellular assay of target engagement (SAM): SAM level by LC-MS/MS after 72 hrs; format: cell-based; settings: HCT-116, IC50 score, read-out: Cell 72 h SAM Inhibition (MTAP −/−)
Method: Cellular Assay of Target Engagement (SAM)
Measurement of MAT2A activity in cells was made by direct quantitation of the abundance of the product of its enzymatic activity, SAM. Cancer cells were treated with candidate MAT2A inhibitors for a suitable incubation period, and the cells were then lysed using a reagent which quenched any further enzyme activity. Soluble metabolites including SAM were collected and SAM itself was directly measured from the lysate using quantitative LC-MS/MS.
A typical assay was performed using an HCT116 human colon carcinoma cell line which was genetically engineered to delete the MTAP gene (commercially available from Horizon Discovery). This cell line was utilized because it was determined that loss of the MTAP gene predicts sensitivity to MAT2A inhibitors. Cells were plated in 96-well dishes at appropriate cell density. Following 24 hours, cells were then treated with the candidate MAT2A inhibitor. Prior to addition to cells, the compound was first serially diluted in 100% DMSO, typically as a 3-fold serial dilution starting at 500× top dose with 10 dose points including DMSO only control. Compound was then transferred to a working stock plate in cell culture media by adding 5 μL of compound in DMSO to 495 μL of cell culture media. This working stock was then added to cells via a further 5-fold dilution, by adding 25 μL of working stock to 100 μL of cells in culture media. Following compound addition, cells were incubated at 37° C./5% CO2 for 72 hrs.
To quantitate SAM levels following compound treatment, cells were gently washed once in ammonium carbonate buffer (75 mM at pH 7.4), placed on dry ice, and lysed with metabolite extraction buffer (80% cold methanol and 20% water (v/v) with acetic acid at 1M final concentration with 200 ng/mL deuterated d3-SAM as internal control). Following centrifugation at 4° C. at 3,200 rpm for 30 minutes, the supernatant was collected and stored at −80° C. until analysis by Liquid Chromatography with tandem Mass Spectrometry (LC-MS/MS). LC-MS/MS analysis was performed using an API6500 Mass Spectrometer (Sciex, Framingham, Mass., USA) operating in positive ion spray mode and equipped with a Waters UPLC Acquity (Waters, Milford, Mass., USA) BEH Amide column. Multiple Reaction Monitoring data was acquired for SAM and the d3-SAM standard, using a mass transition pair at m/z 399.2→250.1 and 402.2→250.1, respectively. In a typical LC-MS/MS analysis, the initial flow rate was 0.5 ml/min of 25% mobile phase A (acetonitrile and water at 5:95 (v/v) with 1% formic acid and 10 mM ammonium acetate) and 75% mobile phase B (acetonitrile and water at 95:5 (v/v) with 1% formic acid and 10 mM ammonium acetate), 0.2-0.5 minutes with 75%-35% mobile phase B, 25%-65% mobile phase A, at 0.5 min 65% mobile phase A and 35% mobile phase B, 1.0-1.1 minutes with 35%-75% mobile phase B, 65%-25% mobile phase A, at 1.1 min 25% mobile phase A and 75% mobile phase B with a total run time of 1.5 minutes.

MAT2A homodimer = molecular target: T1, MAT2A homodimer (Homo sapiens, UniProt P31153); assay: Biochemical assay: inhibition of recombinant MAT2A homodimer (phosphate release, PiColorLock Gold); settings: MAT2A IC50 score; read-out: Enzyme Inhibition
T1 construct: inferred from Ni sepharose purification and imidazole elution; made in house; host or cells: Sf9 insect cells, recombinant baculovirus (Bac to Bac, pFASTBAC1 vector)
T1 sequence (P31153 whole entry): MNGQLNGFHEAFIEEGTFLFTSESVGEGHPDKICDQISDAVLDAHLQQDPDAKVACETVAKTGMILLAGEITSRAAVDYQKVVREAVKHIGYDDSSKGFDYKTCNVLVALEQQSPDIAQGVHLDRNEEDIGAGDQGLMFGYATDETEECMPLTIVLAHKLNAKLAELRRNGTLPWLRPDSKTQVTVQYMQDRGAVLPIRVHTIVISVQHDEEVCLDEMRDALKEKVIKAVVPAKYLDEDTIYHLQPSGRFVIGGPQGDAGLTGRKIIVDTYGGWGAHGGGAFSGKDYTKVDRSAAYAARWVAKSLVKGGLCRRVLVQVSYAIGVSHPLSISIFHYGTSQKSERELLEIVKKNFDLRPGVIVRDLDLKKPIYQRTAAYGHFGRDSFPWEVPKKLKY
In short: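 Baculovirus/Sf9-expressed, Ni-purified MAT2A at 4 μg/mL in pH 8.0 Tris/KCl/MgCl2/EDTA/BSA buffer, preincubated with compound 60 min at 25 °C. Started with ATP and L-methionine substrate mix (500 μM and 40 μM, stock in mix), 60 min at 25 °C; released phosphate by PiColorLock Gold against a phosphate standard curve.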

HCT116 MTAP +/+ = assay: Inhibition of cellular proliferation, 4 days, Cell Titer Glo, HCT116 MTAP+/+; format: cell-based; settings: Homo sapiens, HCT-116, 96 h, IC50 score, read-out: 4 Day Relative Growth Inhibition (MTAP +/+)
Method: (§1) Assay for Inhibition of Cellular Proliferation
(§2) Test compound impact on cancer cell growth was assessed by treating cancer cells with compound for 4 days and then measuring proliferation using an ATP-based cell proliferation readout (Cell Titer Glo, Promega Corporation).
(§3) In a typical assay an isogenic pair of HCT116 human colon carcinoma cell lines which vary only in MTAP deletion status (HCT116 MTAP +/+ and HCT116 MTAP−/−) were plated in 96-well dishes at appropriate cell density. Following 24 hours, cells were then treated with the candidate MAT2A inhibitor. Prior to addition to cells, the compound was first serially diluted in 100% DMSO, typically as a 3-fold serial dilution starting at 500× top dose with 10 dose points including DMSO only control. Compound was then transferred to a working stock plate in cell culture media by adding 5 μL of compound in DMSO to 495 μL of cell culture media. This working stock was then added to cells via a further 5-fold dilution, by adding 25 μL of working stock to 100 μL of cells in culture media. Following compound addition, cells were incubated at 37° C./5% C02 for 4 days.
(§4) To measure inhibition of cellular proliferation, cells were allowed to equilibrate to room temperature for 30 minutes, and were then treated with 125 μL of Cell Titer Glo reagent. The plate was then covered with aluminum foil and shaken for 15 minutes to ensure complete mixing and full cell lysis. Luminescent signal was then measured using a plate-based luminometer Veritas version 1.9.2 using ATP standard curve to confirm assay reproducibility from run to run. This luminescence measure was converted to a proliferation index by subtracting from each data point the ATP luminescence signal measured from a bank (no cells) well and dividing by the ATP luminescence signal measured in 0.2% DMSO control well adjusted for signal in blank well. Compound activity was then represented as a percentage change in proliferation relative to a within-plate DMSO control against log 10 of compound concentration in molar (M) units.

HCT116 MTAP-/- = assay: Inhibition of cellular proliferation, 4 days, Cell Titer Glo, HCT116 MTAP-/-; format: cell-based; settings: Homo sapiens, HCT-116, 96 h, IC50 score, read-out: 4 Day Relative Growth Inhibition (MTAP −/−)
Method: as §1, §2, §3, §4

SMILES | IC50 [1] [nM] | IC50 (MAT2A homodimer) [nM] | IC50 (HCT116 MTAP +/+) [nM] | IC50 (HCT116 MTAP-/-) [nM]
CCOc1cc(C)c2cc(-c3ccc4nn(C)cc4c3)c(=O)n(-c3ccc(Cl)cc3)c2n1 [Example 164] | < 100 | < 100 | ≥ 1000 | < 100
CCOc1ccc2cc(-c3ccc4nn(C)cc4c3)c(=O)n(-c3ccc(C4CC4)cc3)c2n1 [Example 165] | < 100 | < 100 | ≥ 1000 | < 100
Cn1cc2cc(-c3cc4ccc(OCC(F)(F)F)nc4n(-c4ccc(C5CC5)nc4)c3=O)ccc2n1 [Example 166] | < 100 | < 100 | ≥ 1000 | < 100
CNc1ccc(-n2c(=O)c(-c3ccc4nn(C)cc4c3)cc3ccc(OCC(F)(F)F)nc32)cn1 [Example 167] | < 100 | < 100 | ≥ 1000 | < 100
Cn1cc2cc(-c3cc4ccc(OCC(F)F)nc4n(-c4ccc(C5CC5)nc4)c3=O)ccc2n1 [Example 168] | < 100 | < 100 | ≥ 1000 | < 100
Cn1cc2cc(-c3cc4ccc(OCC(F)F)nc4n(-c4ccc5scnc5c4)c3=O)ccc2n1 [Example 169] | < 100 | < 100 | ≥ 1000 | 100 to 1000
COc1ccc(-n2c(=O)c(-c3ccc(OC)nc3)cc3cnc(NCC(F)(F)F)nc32)cc1 [Example 171] | 100 to 1000 | < 100 | ≥ 1000 | ≥ 1000
COc1ccc(-n2c(=O)c(-c3ccc4nccn4c3)cc3cnc(NCC(F)(F)F)nc32)cc1 [Example 172] | < 100 | < 100 | ≥ 1000 | 100 to 1000
COc1ccc(-n2c(=O)c(-c3ccc4c(c3)CCO4)cc3cnc(NCC(F)(F)F)nc32)cc1 [Example 173] | < 100 | < 100 | ≥ 1000 | < 100
COc1ccc(-n2c(=O)c(-c3ccc4[nH]cnc4c3)cc3cnc(NCC(F)(F)F)nc32)cc1 [Example 174] | < 100 | < 100 | ≥ 1000 | ≥ 1000
COc1ccc(-n2c(=O)c(-c3ccc4ncncc4c3)cc3cnc(NCC(F)(F)F)nc32)cc1 [Example 176] | < 100 | < 100 | 100 to 1000 | < 100
COc1ccc(-n2c(=O)c(-c3ccc4c(c3)OCO4)cc3cnc(NCC(F)(F)F)nc32)cc1 [Example 177] | < 100 | < 100 | ≥ 1000 | ≥ 1000
COc1ccc(-n2c(=O)c(-c3ccc(=O)n(C)c3)cc3cnc(NCC(F)(F)F)nc32)cc1 [Example 180] | 100 to 1000 | < 100 | ≥ 1000 | 100 to 1000
COc1ccc(-n2c(=O)c(-c3cn[nH]c3)cc3cnc(NCC(F)(F)F)nc32)cc1 [Example 183] | 100 to 1000 | < 100 | ≥ 1000 | ≥ 1000
COc1ccc(-n2c(=O)c(-c3ccc4nccnc4c3)cc3cnc(NCC(F)(F)F)nc32)cc1 [Example 185] | < 100 | < 100 | ≥ 1000 | 100 to 1000
COc1ccc(-n2c(=O)c(-c3ccc4nnccc4c3)cc3cnc(NCC(F)(F)F)nc32)cc1 [Example 186] | < 100 | < 100 | ≥ 1000 | 100 to 1000
COc1ccc(-n2c(=O)c(-c3cnn(C)c3)cc3cnc(NCC(F)(F)F)nc32)cc1 [Example 187] | 100 to 1000 | < 100 | ≥ 1000 | 100 to 1000
COc1ccc(-n2c(=O)c(-c3ccc4ncsc4c3)cc3cnc(NCC(F)(F)F)nc32)cc1 [Example 188] | < 100 | < 100 | ≥ 1000 | 100 to 1000
COc1ccc(-n2c(=O)c(-c3ccc4ncoc4c3)cc3cnc(NCC(F)(F)F)nc32)cc1 [Example 189] | 100 to 1000 | < 100 | ≥ 1000 | 100 to 1000
COc1ccc(-n2c(=O)c(-c3ccc4nncn4c3)cc3ccc(OCC(F)F)nc32)cc1 [Example 194, 3-([1,2,4]triazolo[4,3-a]pyridin-6-yl)-7-(2,2-difluoroethoxy)-1-(4-methoxyphenyl)-1,8-naphthyridin-2(1H)-one] | < 100 | < 100 | 100 to 1000 | < 100
CCOc1ccc2cc(-c3ccc4ncn(C)c4c3)c(=O)n(-c3ccc(Cl)cc3)c2n1 [Example 195] | < 100 | < 100 | 100 to 1000 | < 100
CCOc1ccc2cc(-c3ccc4nn(CC(C)(C)O)cc4c3)c(=O)n(-c3ccc(Cl)cc3)c2n1 [Example 196] | < 100 | < 100 | 100 to 1000 | 100 to 1000
CCOc1ccc2cc(-c3ccc4nccn4c3)c(=O)n(-c3ccc(Cl)cc3)c2n1 [Example 197] | < 100 | < 100 | ≥ 1000 | < 100
